Data on 11 molecules can be found in US7998940B2, “Aptamers to von Willebrand factor and their use as thrombotic disease therapeutics” (Archemix Corp., priority 2004, dated 2011).

The subject of data set [1] is rabbit vWF A1 domain (SEQ ID NO 6). Description: dot blot KD determination, rabbit vWF A1 domain. The class given is binding. The following applies: for Kd: rRdY minimers, 8 point titration 0-300 nM.
Experimental: A 12 point protein titration was used in the dot blot assay (300 nM, 100 nM, 30 nM, 10 nM, 3 nM, 1 nM, 300 pM, 100 pM, 30 pM, 10 pM, 3 pM, 0 pM) in 1×DPBS plus 0.1 mg/mL BSA at room temperature for 30 minutes.
The target of data set [2] is T1, human vWF A1 domain (SEQ ID NO 5) (Homo sapiens, UniProt P04275, T1381A). Description: dot blot KD determination, human vWF A1 domain.
Experimental: For KD determination, aptamers transcripts were purified on 10% denaturing polyacrylamide gels, 5′ end labeled with γ-^32P ATP.
For KD determination, aptamers were purified on denaturing polyacrylamide gels and 5′-end labeled with γ-^32P ATP. A 6 point protein titration of human vWF A1 domain (SEQ ID NO 5) was used in the dot blot assay (333 nM, 100 nM, 33 nM, 10 nM, 3 nM, 0 nM) in 1×DPBS plus 0.1 mg/mL BSA at room temperature for 30 minutes. KD values were calculated by fitting the equation y=(max/(1+K/protein))+yint using KaleidaGraph (KaleidaGraph v. 3.51, Synergy Software).
KD values were calculated by fitting the equation y=(max/(1+K/protein))+yint using KaleidaGraph (KaleidaGraph v. 3.51, Synergy Software).
All minimer sequences were transcribed, gel-purified on 15% denaturing polyacrylamide gels, 5-^32 end-labeled with γ^32P ATP, and then desalted using two Centri-Spin 10 columns (Princeton Separations Cat. #CS-101, Adelphia, N.J.). For KD determination, minimer transcripts were tested for direct binding to full length human vWF (SEQ ID NO 7), human vWF A1 domain (SEQ ID NO 5), and rabbit vWF A1 domain (SEQ ID NO 6) using an 8 point protein titration from 0-300 nM (3 fold dilutions) in 1× Dulbecco's PBS containing 0.1 mg/mL BSA (in a final volume of 50 uL) for 30 minutes at room temperature and then applied to a nitrocellulose and nylon filter sandwich in a dot blot apparatus (Schleicher and Schuell, Keene, N.H.). KD values were calculated by fitting the equation y=(max/(1+K/protein))+yint using KaleidaGraph (KaleidaGraph v. 3.51, Synergy Software).
All minimer DNA sequences were chemically synthesized, 5-^32P end-labeled with γ-^32P ATP, and then desalted using two Centri-Spin 10 columns (Princeton Separations, Cat. #CS-101, Adelphia, N.J.). […] KD values were calculated by fitting the equation y=(max/(1+K/protein))+yint using KaleidaGraph (KaleidaGraph v. 3.51, Synergy Software).
Data set [3] has as its system full length human vWF binding to lyophilized platelets. Description: Full length human von Willebrand Factor platelet binding assay (FACS). Type of data set: cell-based. The note with it: 5 nM full length human vWF, lyophilized platelets, botrocetin; for IC50: read-out: Inhibition of full length hVWF binding in FACS assay, Average IC50; for Inhibition of full length hVWF binding in FACS assay, IC50 range: both bounds in nM. The method in brief:
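Aptamer titrations (0.1–1000 nM) pre-incubated with 5 nM full-length human vWF, then added to lyophilized platelets plus botrocetin for 15 min at 37 °C in PBS/0.5% BSA. Bound vWF detected by anti-vWF then FITC secondary antibody via flow cytometry MFI; % inhibition versus no-aptamer binding fitted for IC50.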

Data set [4] concerns rabbit vWF domain A1 binding to lyophilized platelets. Description: Rabbit von Willebrand Factor domain A1 platelet binding assay (FACS). The class given is cell-based. The following applies: 4 nM rabbit A1 vWF, lyophilized platelets, botrocetin. The method, then: Botrocetin induces the binding of the A1 domain of vWF to platelets, as well as the full length protein. It was determined by the inventors that 6-Histidine-tagged rabbit A1 domain vWF purified protein could be induced to bind to human lyophilized platelets with botrocetin. Rabbit A1 binding to platelets is measured with an anti-poly-His antibody followed by incubation with a phycoerythrin conjugated secondary antibody. The degree of binding can be quantified by flow cytometric analysis. The ability of aptamers to block the binding of rabbit A1 to human fixed platelets was correlated with decreased fluorescence signal.
The ability of aptamers of the invention to block rabbit vWF domain A1 binding to lyophilized platelets was also assessed by flow cytometric analysis. Titrations of aptamers (zero, 0.1 nM to 1000 nM) were preincubated briefly with 4 nM of rabbit A1 vWF in FACS buffer (PBS plus 0.5% bovine serum albumin) at room temperature in a volume of 50 uL. Another 50 uL containing 5 uL of lyophilized platelets plus 1 uL of 0.1 U/uL of botrocetin in FACS buffer was added to aptamer/vWF. This reaction was allowed to proceed for 15 minutes at 37 degrees C. after which 200 uL of FACS buffer was added. Platelets were collected by a 6 minute spin at 1470 RCF and the supernatant was discarded. The pellets were resuspended in 100 uL of FACS buffer containing a 1:200 dilution of anti-Penta-HIS-biotin conjugate antibody and were incubated at room temperature for 30 minutes. After the dilution with 200 uL of FACS buffer, the platelets were spun at 1470 RCF for 6 minutes, and the supernatant was discarded. The pellets were resuspended in a 1:100 solution of anti-IgG-PE antibody and were incubated in the dark for 30 minutes at room temperature. The entire 100 uL was diluted into 200 uL of FACS buffer and analyzed immediately by flow cytometric analysis in the FACSCAN. Contaminating debris was eliminated from the analysis by drawing a gate around the population of single and aggregated platelets and collecting data from 10000 events. Median fluorescent intensity (“MedFI”) readings (which are generally equivalent to the MFI readings, described in Example 3a above, for comparative purposes) were quantified for each sample analyzed by flow cytometry. Background MedFI was subtracted from all data points. Percent inhibition was reported by calculating the percent value of binding of […] to platelets in the presence of aptamer at a given concentration relative to binding in the absence of any aptamer (see FIG. 7). IC50 values were determined by fitting the percent inhibition of vWF binding to platelets as a function of aptamer concentration to the equation: % inhibition=% inhibitionmax/(1+IC50/aptamer conc.)

Data set [5] relates to botrocetin induced platelet aggregation. Description: Inhibition of botrocetin induced platelet aggregation (BIPA) in human PRP. The note with it: botrocetin induced platelet aggregation, 6 minutes. The class given is cell-based. The method, then:
In platelet rich plasma isolated from fresh human blood, botrocetin induces platelet aggregation via vWF. Platelet aggregate formation can be measured optically as an increase in % light transmittance on a Chronolog Model 490-4D Aggregometer because aggregation of platelets clarifies the plasma. Aptamers of the invention were analyzed for their ability to inhibit botrocetin induced platelet aggregation (“BIPA”) in human blood. An aptamer of the invention was considered to be active if it could prevent aggregate formation for six minutes post botrocetin addition.
In order to determine the activity of aptamers on live human platelets, BIPA assays were done using freshly prepared platelet rich plasma. Blood was obtained from healthy human donors who had not taken NSAIDS for at least five days. […] Collected blood was pooled into 15 mL conical tubes and was spun at 200 g for 20 minutes. The turbid, yellow layer of platelet rich plasma (“PRP”) was withdrawn from the tubes, pooled, and set aside at room temperature. The remaining blood was spun at 2500 g for ten minutes. The clarified layer of plasma, known as platelet poor plasma (“PPP”), was withdrawn and set aside at room temperature. PRP was aliquoted into cuvettes containing stir bars at a volume of 470 uL. A sample of 500 uL of PPP was aliquoted into a cuvette and placed in the PPP reference cell of the platelet aggregometer. Samples of PRP were prewarmed at 37 degrees C. in the platelet aggregometer for 3-5 minutes before being used in BIPA assays. First, the concentration of botrocetin needed to induce platelet aggregation for each individual donor was determined by titration. This concentration of botrocetin was used for the remainder of the experiment. Next, aptamer was assayed by adding titrations of aptamer (zero, 1 nM to 1000 nM) to prewarmed PRP for one minute, followed by addition of botrocetin. With platelet aggregation, an increase in amplitude of light transmission is seen (FIG. 8). The concentration at which platelet aggregation is blocked at 90% or greater after 6 minutes is reported in the final column of Table 26.

Data set [6] concerns full length human vWF (SEQ ID NO 7). Nature of the data set: dot blot KD determination and extent of binding, full length human vWF.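 On all read-outs here: dot blot binding of aptamers to full length human vWF across a protein titration, incubated 30 minutes at room temperature in 1x DPBS with BSA.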 The following applies: for Kd: rRdY minimers, 8 point titration 0-300 nM, read-out: Full length human vWF KD; for Full length human vWF KD: DNA 2 minimers, 9 point protein titration.
Data set [7] addresses T1, human vWF A1 domain (SEQ ID NO 5). Description: 3-point dot blot screen, human vWF A1 domain. The note with it: rRfY aptamers; 100 nM human vWF A1 domain; ratio of fraction bound with target to fraction bound without target. Type of data set: binding. The method in brief:
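Values are ratios of aptamer fraction retained on nitrocellulose with 100 nM vWF A1 domain (human or rabbit) versus a no-protein control. Unique clones from rounds 9 and 12 pools were transcribed, desalted and 5'-32P labeled before this three-point dot blot screen.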

Data set [8] deals with rabbit vWF A1 domain (SEQ ID NO 6). Description: 3-point dot blot screen, rabbit vWF A1 domain. The class given is binding. The note with it: for Screen Rabbit/No Protein: 3-point dot blot screen, 20 nM rabbit vWF A1 domain, ratio of fraction of aptamer bound with target protein to fraction bound without protein. The method in brief: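 Rabbit vWF A1 domain binding was screened by dot blot using three conditions: no target protein, human vWF, and rabbit vWF A1 domain at 100 nM (20 nM in the screen run twice). Radiolabeled aptamer bound to nitrocellulose was quantified, and results are expressed as the ratio of bound fraction with protein to bound fraction without protein.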

In another data set the test system is full length human vWF. Description: 3-point dot blot screen, full length human vWF. The following applies: 20 nM full length human vWF, ratio of fraction of aptamer bound with target protein to fraction bound without protein. Type of data set: binding. The method in brief: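 Unique aptamer clones tested twice by nitrocellulose dot blot with no protein, 20 nM full-length human vWF or 20 nM rabbit vWF A1 domain. Value is fraction of aptamer bound with target divided by fraction bound without protein.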

[9] abbreviates: read-out: Inhibition of rabbit VWF A1 domain binding in FACS assay, Average IC50.
Where [10] appears, read: DNA 2 minimers, 9 point protein titration.
[11] abbreviates: read-out: human A1 KD, rRfY aptamers, 8 point titration of human vWF A1 domain.
The mark [12] stands for this setting: both bounds in nM, read-out: Inhibition of rabbit VWF A1 domain binding in FACS assay, IC50 range.

Where two headings read alike, the source gives them in different places. Oligonucleotides are written 5' to 3', each unit as a sugar letter and its base; * is a phosphorothioate linkage, no mark a phosphodiester; rarer units and linkages stand in square brackets, end groups in braces. Plain capitals give the bases only. d = 2'-deoxy (DNA); r = 2'-OH (RNA); f = 2'-fluoro

Chain of rabbit vWF domain A1 binding to lyophilized platelets (as listed by the source): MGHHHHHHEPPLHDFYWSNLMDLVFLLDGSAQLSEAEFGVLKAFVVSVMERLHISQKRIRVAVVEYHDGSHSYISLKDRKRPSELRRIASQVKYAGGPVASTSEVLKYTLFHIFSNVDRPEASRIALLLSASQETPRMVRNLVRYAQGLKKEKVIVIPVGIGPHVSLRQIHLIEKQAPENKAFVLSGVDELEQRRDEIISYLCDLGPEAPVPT
Chain of rabbit vWF A1 domain (SEQ ID NO 6) (as listed by the source): as above
T1 sequence (P04275 with tags, fused parts or gaps T1381A): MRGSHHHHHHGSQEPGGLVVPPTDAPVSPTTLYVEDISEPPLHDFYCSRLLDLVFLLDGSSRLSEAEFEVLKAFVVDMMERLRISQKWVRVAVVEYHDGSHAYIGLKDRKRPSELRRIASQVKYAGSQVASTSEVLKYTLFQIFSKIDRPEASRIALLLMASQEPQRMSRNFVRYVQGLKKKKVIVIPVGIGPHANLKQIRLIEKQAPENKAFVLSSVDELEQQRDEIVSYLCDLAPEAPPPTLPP

With “CCAGCGGAATGAGAATGCTGATGGATTGCTCAGGTCTGCTGG (DNA, backbone not given here) [SEQ ID NO 204]”, the “Rabbit vWF A1 domain KD” value in data set [1] (DNA 1 minimers) is “No binding”. Besides, the “Human vWF A1 domain KD” value in [2] (DNA 1 minimers, competition dot blot, 10 nM protein) is reported as “No binding”.
As to “GGACCACCCUCGCAACGAGAGUUGUGCCGCUGGUCC (rGrGrAfCfCrAfCfCfCfUfCrGfCrArAfCrGrArGrArGfUfUrGfUrGfCfCrGfCfUrGrGfUfCfC) [SEQ ID NO 174, minimized rRfY aptamer]”, the IC50 (commonly the midpoint of a concentration-inhibition curve) in [3] stood at 6.6 nM; in [4] (setting [9]), 6.8 nM. Also, the “≦200 nM aptamer gives >90% blocking in BIPA at 6 minutes” value (shortened to “≦200 nM aptamer gives >90% blocking”) in data set [5] is reported as “yes”.
Turning to “GGAGCCACACGACATTGGCGCGAGAGCGCATGGCTCC (chemistry not given here) [SEQ ID NO 201, minimized rRdY aptamer]”, the IC50 in [3] was 150 nM. For the same molecule, the “≦200 nM aptamer gives >90% blocking” value in data set [5] is “no activity”.
Regarding “GGCCACACGACATTGGCGGGCGAGAGCCACGCATGGCC (rGrGdCdCrAdCrAdCrGrAdCrAdTdTrGrGdCrGrGrGdCrGrArGrArGdCdCrAdCrGdCrAdTrGrGdCdC) [SEQ ID NO 198]”, the Kd (commonly the equilibrium constant for the complex coming apart) in [1] worked out at 11 ± 2 nM; in data set [6], 3 ± 0.6 nM; in [2] (read-out: Human vWF A1 domain KD, rRdY minimers, 8 point titration 0-300 nM), 5 ± 2 nM. Further, the IC50 in data set [3] turned out to be 20.6 nM; in [4] (setting [9]), 12.6 nM.
On to “GGCGTGCAGTGCCT-[PEG]-AGGCCGTGCGG-[PEG]-CCGTCACGCC-3T (DNA GGCGTGCAGTGCCTAGGCCGTGCGGCCGTCACGCCT; chemistry not fully specified) [ARC1031, minimized DNA aptamer]”, for which the “Rabbit vWF A1 domain KD” value in data set [1] (setting [10]) is on record as “No binding”. Further, the “Inhibition of full length hVWF binding in FACS assay, IC50 range” value (“Inhibition of full length hVWF binding” for short) in data set [3] was “no activity”. Also, the “Full length human vWF KD” value in data set [6] was “No binding”.
For “GGCGTGCAGTGCCTATTCTAGGCCGTGCGG-[PEG]-CCGTCACGCC-3T (DNA GGCGTGCAGTGCCTATTCTAGGCCGTGCGGCCGTCACGCCT; chemistry not fully specified) [ARC1030, minimized DNA aptamer]”, in data set [1] (setting [10]), the “Rabbit vWF A1 domain KD” value was “No binding”. Besides, the “Inhibition of full length hVWF binding” value in [3] is “no activity”. For the same molecule, in data set [6], the “Full length human vWF KD” value was “No binding”.
As for “GGGACGGGGTGGGTAGACGGCGGGTATGTCCC (rGrGrGrAdCrGrGrGrGdTrGrGrGdTrArGrAdCrGrGdCrGrGrGdTrAdTrGdTdCdCdC) [SEQ ID NO 183, minimized rRdY aptamer]”, the figures for the Kd in data set [1] and in [6] were 14 ± 7 nM and 10 ± 5 nM, respectively. In addition, in data set [3], the IC50 came out at 26.5 nM.

B1: AMX201.H3: rRfY aptamer clone (nucleic acid)
chain: rGrGrArGfCrGfCrAfCfUfCrArGfCfCrAfCfUrArAfCrGrGfUfUrGrAfUfCfUfCrArGrGrAfCfUrArArAfUrArGfUfCrArAfCrArArGrGrAfUrGfCrGfUfUfUfCrGrAfCfCfUfCfUfCfUrGfCfUrArGfC
Take B1: in data set [7], the “Screen- Human/No Protein” value is given as 1.88. In addition, the “Inhibition of full length hVWF binding” value in data set [3] is on record as “no activity”. Moreover, the “≦200 nM aptamer gives >90% blocking” value in data set [5] was “yes”. For the same molecule, the Kd in [2] (setting [11]) was determined as 90 nM. For the same molecule, the “Screen- Rabbit/No Protein” value in data set [8] (rRfY aptamers, 100 nM rabbit vWF A1 domain, ratio of fraction bound with target to without) is 1.89.

B2: AMX237.G7: DNA SELEX 2 aptamer clone (nucleic acid)
DNA: CTACCTACGATCTGACTAGCTTGGTAGCGACTTTGTGGAGCTGCGGTTTGGTCGACGTCAGCTTACTCTCATGTAGTTCC
modifications: DNA, backbone not given here
notes: DNA SELEX 2 aptamer clone
For the molecule B2, the IC50 stood at 6.5 nM in [3] and 12.3 nM in [4] (setting [12]). Further, the “Screen- Human/No Protein” value in the data set with full length human vWF is on record as 2.68. In addition, the “Screen Rabbit/No Protein” value in data set [8] is given as 2.54.

B3: AMX236.A12: DNA SELEX 2 aptamer clone (nucleic acid)
chain: CTACCTACGATCTGACTAGCTTGGTAGCGACTCTGTGGAGCTGCGGTTTGGTCGACGTCAGCTTACTCTCATGTAGTTCC
modifications: DNA, backbone not given here
notes: DNA SELEX 2 aptamer clone
With B3, the values for the IC50 in [3] and in data set [4] (setting [12]) were 10.7 nM and 14.5 nM, respectively. The “Screen- Human/No Protein” value in the data set with full length human vWF amounted to 2.64. The “Screen Rabbit/No Protein” value in [8] came out at 2.41.

B4: AMX201.B1: rRfY aptamer clone (nucleic acid)
chain: rGrGrArGfCrGfCrAfCfUfCrArGfCfCrAfCrArGrArGfCfCfCfUrGrArGfUrGfUrAfUrGrAfUfCrGfCfCfUrArGrAfUfCfUrAfUfCrGrAfUrGfCfUfUfUfUfUfCrGrAfCfCfUfCfUfCfUrGfCfUrArGfC
For the molecule B4, the “Inhibition of full length hVWF binding” value in data set [3] was “no activity”. The “≦200 nM aptamer gives >90% blocking” value in data set [5] is given as “yes”. Besides, in [2] (setting [11]), the Kd was 19 nM.
